Data as given in US20260070929A1, “METHODS AND COMPOSITIONS FOR MODULATING KRAS(G12D)” (Ranok Therapeutics (Hangzhou) Co. LTD., priority 2022, published 2026).

Legend:
KRAS(G12D)/SOS1 = biological target: T1, KRAS(G12D)/SOS1 (Homo sapiens, UniProt P01116, G12D); assay: KRAS(G12D)/SOS1 homogeneous time-resolved fluorescence (HTRF) assay; type: binding; conditions: absence of GTP; 4° C., 3 hr
T1 construct: purchased Cisbio 63ADK000CB17PEH
Procedure: Binding of test compounds to KRAS(G12D) target protein, which in turn blocks KRAS(G12D) interaction with the SOS1 protein, was measured in the absences of GTP by homogeneous time-resolved fluorescence using the KRAS-G12D/SOS1 Binding Assay Kit (Cisbio, 63ADK000CB17PEH), following the manufacturer's instructions, except as noted. 3-fold serial dilutions of each test compound were prepared ranging from 20 µM to 1.02 nM. The test compound was mixed and incubated with reaction components, incubated in a sealed plate at 4° C. for 3 hr and fluorescence was measured using a PerkinElmer Envision plate reader. The KRAS(G12D)-SOS1 IC50 values (the concentration of 50% of the maximal inhibition) were calculated using GraphPad Prism 7 software.

[1] = system: AGS gastric carcinoma cells [heterozygous G12D]; assay: Cancer cell line proliferation (CellTiter-Glo), AGS; type: cell-based; conditions: Homo sapiens, 72 hr treatment, read-out: AGS CTG (EC50)
Procedure: (§1) The following cancer cell lines were employed: AGS gastric carcinoma [heterozygous G12D](ATCC, CRL-1739); A-427 lung carcinoma [heterozygous G12D](ATCC, HTB-53); ASPC1 pancreatic adenocarcinoma [homozygous G12D](ATCC, CRL-1682) and SW1990 pancreatic adenocarcinoma [homozygous G12D](ATCC CRL-2172). Cell lines were cultured essentially according to ATCC recommendations.
(§2) AGS, A-427, ASPC1, SW1990, and GP2D cells were plated in 96-well tissue culture plates at 4,000 cells/well and incubated at 37° C./5% CO2 for 72 hr in 100 μl of media. 3-fold serial dilutions of each test compound were prepared ranging from 20 μM to 1.02 nM. Each cell line was then treated with test compounds at various concentrations with a final concentration of 0.5% DMSO/well, and then incubated at 37° C./5% CO2 for 72 hr. 100 µl of CellTiter-Glo® Reagent (Promega Corporation, Madison, WI) was added to each well and processed according manufacturer's protocol. Results were analyzed and EC50 values were calculated in GraphPad 7 software.

[2] = system: A-427 lung carcinoma cells [heterozygous G12D]; assay: Cancer cell line proliferation (CellTiter-Glo), A-427; type: cell-based; conditions: Homo sapiens, A-427 cells, 72 hr treatment, read-out: A427 CTG (EC50)
Procedure: as §1, §2

[3] = system: ASPC1 pancreatic adenocarcinoma cells [homozygous G12D]; assay: Cancer cell line proliferation (CellTiter-Glo), ASPC1; type: cell-based; conditions: Homo sapiens, ASPC1, 72 h, 72 hr treatment, read-out: ASPC-1 CTG (EC50)
Procedure: as §1, §2

T1 sequence (P01116 1-188 isoform P01116-2 G12D): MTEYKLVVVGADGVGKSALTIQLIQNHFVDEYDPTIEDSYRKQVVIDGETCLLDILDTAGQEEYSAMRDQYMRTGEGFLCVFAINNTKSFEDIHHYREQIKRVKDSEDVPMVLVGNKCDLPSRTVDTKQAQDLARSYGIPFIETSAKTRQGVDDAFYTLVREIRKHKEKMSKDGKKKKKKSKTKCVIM

SMILES | IC50 (KRAS(G12D)/SOS1) | EC50 [1] | EC50 [2] | EC50 [3]
CCNC(=O)c1nnc(-c2cc(C(C)C)c(O)cc2O)n1-c1ccc(CN2CCN([C@H]3C[C@@H](COc4nc(N5CC6CCC(C5)N6)c5cnc(-c6cccc7ccccc67)c(F)c5n4)N(C)C3)CC2)cc1 [Compound 34] | > 1000 nM | < 100 nM | 100 to 1000 nM | 100 to 1000 nM
CCNC(=O)c1nnc(-c2cc(C(C)C)c(O)cc2O)n1-c1ccc(CN2CCC(C(=O)N3CCN([C@H]4C[C@@H](COc5nc(N6CC7CCC(C6)N7)c6cnc(-c7cc(O)cc8ccccc78)c(F)c6n5)N(C)C4)CC3)CC2)cc1 [Compound 38] | < 100 nM | 100 to 1000 nM | 100 to 1000 nM | 100 to 1000 nM
CNC(=O)c1nnc(-c2cc(C)c(O)cc2O)n1-c1ccc(CN2CCN(C(=O)C3CCN([C@H]4C[C@@H](COc5nc(C6CC7CCC(C6)N7)c6cnc(-c7cccc8cccc(Cl)c78)c(F)c6n5)N(C)C4)CC3)CC2)cc1 (stereo partly shown) [Compound 8] | < 100 nM | > 1000 nM | > 1000 nM | > 1000 nM
CCNC(=O)c1nnc(-c2cc(C(C)C)c(O)cc2O)n1-c1ccc(CN2CCN(C(=O)C3CCN([C@H]4C[C@@H](COc5nc(N6CC7CCC(C6)N7)c6cnc(-c7cccc8cccc(Cl)c78)c(F)c6n5)N(C)C4)CC3)CC2)cc1 [Compound 6] | 100 to 1000 nM | 100 to 1000 nM | 100 to 1000 nM | > 1000 nM
CCNC(=O)c1nnc(-c2cc(C(C)C)c(O)cc2O)n1-c1ccc(CN2CCN(C[C@H]3CC[C@@H](COc4nc(N5CC6CCC(C5)N6)c5cnc(-c6cccc7ccccc67)c(F)c5n4)N3C)CC2)cc1 [Compound 66] | 100 to 1000 nM | < 100 nM | < 100 nM | 100 to 1000 nM
CC(C)c1cc(-c2nnc(O)n2-c2ccc(CN3CCN(C(=O)C4CCN([C@H]5C[C@@H](COc6nc(N7CC8CCC(C7)N8)c7cnc(-c8cccc9cccc(Cl)c89)cc7n6)N(C)C5)CC4)CC3)cc2)c(O)cc1O [Compound 4] | 100 to 1000 nM | – | – | > 1000 nM
COc1cccc2cccc(-c3ncc4c(N5CC6CCC(C5)N6)nc(OC[C@@H]5C[C@H](N6CCN(Cc7ccc(-n8c(C(=O)NC(C)C(F)(F)F)nnc8-c8cc(C(C)C)c(O)cc8O)cc7)CC6)CN5C)nc4c3F)c12 (stereo partly shown) [Compound 106] | > 1000 nM | < 100 nM | 100 to 1000 nM | –
COc1cccc2cccc(-c3ncc4c(N5CC6CCC(C5)N6)nc(OC[C@@H]5C[C@H](N6CCN(C(=O)C7CCN(Cc8ccc9c(c8)CN(C(=O)c8cc(C(C)C)c(O)cc8O)C9)CC7)CC6)CN5C)nc4c3F)c12 [Compound 104] | > 1000 nM | 100 to 1000 nM | 100 to 1000 nM | –
CC(C)c1cc(-c2nnc(C(=O)NC(C)C(F)(F)F)n2-c2ccc(CN3CCN(C[C@H]4C[C@@H](COc5nc(N6CC7CCC(C6)N7)c6cnc(-c7cc(O)cc8ccccc78)c(F)c6n5)N(C)C4)CC3)cc2)c(O)cc1O (stereo partly shown) [Compound 118] | < 100 nM | < 100 nM | 100 to 1000 nM | –
CCc1cc(-c2nnc(C(=O)NCC(F)(F)F)n2-c2ccc(CN3CCN([C@H]4C[C@@H](COc5nc(N6CC7CCC(C6)N7)c6cnc(-c7cccc(F)c7C)c(F)c6n5)N(C)C4)CC3)cc2)c(O)cc1O [Compound 79] | > 1000 nM | 100 to 1000 nM | 100 to 1000 nM | –
C#Cc1cccc2cccc(-c3ncc4c(N5CC6CCC(C5)N6)nc(OC[C@@H]5C[C@H](N6CCN(CCN(CC)C(=O)c7cc(C(C)C)c(O)cc7O)CC6)CN5C)nc4c3F)c12 [Compound 80] | < 100 nM | > 1000 nM | > 1000 nM | –
CCNC(=O)c1nnc(-c2cc(C(C)C)c(O)cc2O)n1-c1ccc(CN2CCN([C@H]3C[C@@H](COc4nc(N5CC6CCC(C5)N6)c5cnc(-c6cccc7cccc(F)c67)c(F)c5n4)N(C)C3)CC2)cc1 [Compound 77] | 100 to 1000 nM | < 100 nM | 100 to 1000 nM | –
CCNC(=O)c1nnc(-c2cc(C(C)C)c(O)cc2O)n1-c1ccc(CN2CCN(C[C@H]3C[C@@H](COc4nc(N5CC6CCC(C5)N6)c5cnc(-c6cc(O)cc7ccccc67)c(F)c5n4)N(C)C3)CC2)cc1 [Compound 95] | < 100 nM | < 100 nM | 100 to 1000 nM | –
C#Cc1cccc2cc(O)cc(-c3ncc4c(N5CC6CCC(C5)N6)nc(OC[C@@H]5C[C@H](N6CCN(Cc7ccc(-n8c(C(=O)NCC)nnc8-c8cc(C(C)C)c(O)cc8O)cc7)CC6)CN5C)nc4c3F)c12 [Compound 96] | < 100 nM | 100 to 1000 nM | 100 to 1000 nM | –
CC(C)c1cc(-c2nnc(C(=O)NCC(F)(F)F)n2-c2ccc(CN3CCN([C@H]4C[C@@H](COc5nc(N6CC7CCC(C6)N7)c6cnc(-c7cccc8cccc(F)c78)c(F)c6n5)N(C)C4)CC3)cc2)c(O)cc1O [Compound 109] | 100 to 1000 nM | < 100 nM | 100 to 1000 nM | –
Cc1c(F)cccc1-c1ncc2c(N3CC4CCC(C3)N4)nc(OC[C@@H]3C[C@H](N4CCN(Cc5ccc(-n6c(C(=O)NC(C)C(F)(F)F)nnc6-c6cc(C(C)C)c(O)cc6O)cc5)CC4)CN3C)nc2c1F (stereo partly shown) [Compound 78] | > 1000 nM | 100 to 1000 nM | 100 to 1000 nM | –
Cc1cccc2cccc(-c3ncc4c(N5CC6CCC(C5)N6)nc(OC[C@@H]5CC[C@H](CN6CCN(C(=O)C7CCN(Cc8ccc9c(c8)CN(C(=O)c8cc(C(C)C)c(O)cc8O)C9)CC7)CC6)N5C)nc4c3F)c12 [Compound 94] | 100 to 1000 nM | 100 to 1000 nM | 100 to 1000 nM | –
CC(C)c1cc(-c2nnc(C(=O)NC(C)C(F)(F)F)n2-c2ccc(CN3CCN([C@H]4C[C@@H](COc5nc(N6CC7CCC(C6)N7)c6cnc(-c7cccc8cccc(F)c78)c(F)c6n5)N(C)C4)CC3)cc2)c(O)cc1O (stereo partly shown) [Compound 93] | 100 to 1000 nM | < 100 nM | 100 to 1000 nM | –
CCc1cc(-c2nnc(C(=O)NCC(F)(F)F)n2-c2ccc(CN3CCN(C[C@H]4CC[C@@H](COc5nc(N6CC7CCC(C6)N7)c6cnc(-c7cccc8cccc(C)c78)c(F)c6n5)N4C)CC3)cc2)c(O)cc1O [Compound 108] | 100 to 1000 nM | 100 to 1000 nM | 100 to 1000 nM | –
C#Cc1cccc2cc(O)cc(-c3ncc4c(N5CC6CCC(C5)N6)nc(OC[C@@H]5C[C@H](N6CCN(C(=O)C7CCN(Cc8ccc9c(c8)CN(C(=O)c8cc(C(C)C)c(O)cc8O)C9)CC7)CC6)CN5C)nc4c3F)c12 [Compound 97] | < 100 nM | 100 to 1000 nM | 100 to 1000 nM | –
CCc1cc(-c2nnc(C(=O)NCC(F)(F)F)n2-c2ccc(CN3CCN([C@H]4C[C@@H](COc5nc(N6CC7CCC(C6)N7)c6cnc(-c7cccc(C)c7C)c(F)c6n5)N(C)C4)CC3)cc2)c(O)cc1O [Compound 81] | > 1000 nM | 100 to 1000 nM | 100 to 1000 nM | –
Cc1cccc2cccc(-c3ncc4c(N5CC6CCC(C5)N6)nc(OC[C@@H]5CC[C@H](CN6CCN(Cc7ccc8c(c7)CN(C(=O)c7cc(C(C)C)c(O)cc7O)C8)CC6)N5C)nc4c3F)c12 [Compound 71] | 100 to 1000 nM | 100 to 1000 nM | 100 to 1000 nM | –
CC(C)NC(=O)c1nnc(-c2cc(C(C)C)c(O)cc2O)n1-c1ccc(CN2CCN([C@H]3C[C@@H](COc4nc(N5CC6CCC(C5)N6)c5cnc(-c6ccccc6C(F)(F)F)c(F)c5n4)N(C)C3)CC2)cc1 [Compound 88] | > 1000 nM | < 100 nM | 100 to 1000 nM | –
CCNC(=O)c1nnc(-c2cc(C(C)C)c(O)cc2O)n1-c1ccc(CN2CCC(C(=O)N3CCN([C@H]4C[C@@H](COc5nc(N6CC7CCC(C6)N7)c6cnc(-c7ccccc7C(F)(F)F)c(F)c6n5)N(C)C4)CC3)CC2)cc1 [Compound 89] | > 1000 nM | < 100 nM | < 100 nM | –
CC(C)c1cc(-c2nnc(O)n2-c2ccc(CN3CCN(C(=O)C4CCN([C@H]5C[C@@H](COc6nc(N7CC8CCC(C7)N8)c7cnc(-c8cccc9cccc(Cl)c89)c(F)c7n6)N(C)C5)CC4)CC3)cc2)c(O)cc1O [Compound 5] | < 100 nM | – | > 1000 nM | > 1000 nM
C#Cc1cccc2cc(O)cc(-c3ncc4c(N5CC6CCC(C5)N6)nc(OC[C@@H]5C[C@H](N6CCN(Cc7ccc(-n8c(C(=O)NC(C)C)nnc8-c8cc(C(C)C)c(O)cc8O)cc7)CC6)CN5C)nc4c3F)c12 [Compound 87] | < 100 nM | 100 to 1000 nM | 100 to 1000 nM | –
CC(C)c1cc(-c2nnc(C(=O)NCC(F)(F)F)n2-c2ccc(CN3CCN([C@H]4C[C@@H](COc5nc(N6CC7CCC(C6)N7)c6cnc(-c7cc(O)cc8ccccc78)c(F)c6n5)N(C)C4)CC3)cc2)c(O)cc1O [Compound 101] | < 100 nM | < 100 nM | 100 to 1000 nM | –
